# Test results from PubChem BioAssay (NCI).
#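 Exposure lasted 48 hours, with cells grown in 96-well plates and compounds tested at five concentrations. At the GI50, growth is halved. The concentration for full growth arrest is given as TGI.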
# Experiments:
# Experiment in all cases: DTP human tumour cell line panel, 48 h
# COLO 205 colon = system: COLO 205 colon
# IGROV1 ovarian = system: IGROV1 ovarian
# K-562 leukemia = system: K-562 leukemia
# MCF7 breast = system: MCF7 breast
# NCI-H23 lung = system: NCI-H23 lung
# NCI-H460 lung = system: NCI-H460 lung
# NCI-H522 lung = system: NCI-H522 lung
# SNB-75 CNS = system: SNB-75 CNS
# U251 CNS = system: U251 CNS
# A498 renal = system: A498 renal
SMILES,GI50 (COLO 205 colon) [µM],TGI (COLO 205 colon) [µM],GI50 (IGROV1 ovarian) [µM],TGI (IGROV1 ovarian) [µM],GI50 (K-562 leukemia) [µM],TGI (K-562 leukemia) [µM],GI50 (MCF7 breast) [µM],TGI (MCF7 breast) [µM],GI50 (NCI-H23 lung) [µM],TGI (NCI-H23 lung) [µM],GI50 (NCI-H460 lung) [µM],TGI (NCI-H460 lung) [µM],GI50 (NCI-H522 lung) [µM],TGI (NCI-H522 lung) [µM],GI50 (SNB-75 CNS) [µM],TGI (SNB-75 CNS) [µM],GI50 (U251 CNS) [µM],TGI (U251 CNS) [µM],TGI (A498 renal) [µM],GI50 (A498 renal) [µM]
C=CCN(CC=C)Cc1c[nH]c2ccccc12,18.4,> 100,16,42.6,50.2,> 100,3,19.7,14,52.8,21.8,62.3,14.9,33.8,> 100,> 100,13.2,31.2,,
N#C[Se]CCN1C(=O)c2ccccc2C1=O,3.07,9.05,2.02,6.12,2.35,15.5,2.24,13.1,2.93,18.8,2.25,11.4,4.72,21.9,2.09,5.56,2.63,8.71,,
COc1ccc2cc3n(c(=O)c2c1)CCc1c-3cc(OC)c(OC)c1OC,,> 100,,> 100,,> 100,,,,> 100,,,,> 100,,98.6,,> 100,,
COC(=O)N/N=C(\C)c1sc(-c2nc(C)c(/C(C)=N/NC(=O)OC)s2)nc1C,,> 100,,> 100,,> 100,,,,> 100,,> 100,,> 100,,> 100,,> 100,> 100,
COc1ccc(C(C)Nc2cc(OC)c(OC)c(OC)c2)cc1 (stereo not drawn),,7.78,,> 100,,> 45,,,,> 39.6,,> 25.5,,17.6,,> 100,,10,> 100,
N#Cc1c(CC(=O)O)cc(=O)n2c1[nH]c1ccccc12,,> 100,,> 100,,> 100,,,,> 100,,> 100,,,,> 100,,> 100,> 100,
CNS(=O)(=O)NNS(=O)(=O)c1ccc(C)cc1,,> 100,,> 100,,> 100,,,,> 100,,> 100,,> 100,,,,,> 100,
c1cc(OCCCCCOc2cccc(-c3nc4ccccc4[nH]3)c2)cc(-c2nc3ccccc3[nH]2)c1,1.47,2.79,0.324,> 100,,,,,,,2.6,> 100,2.48,> 100,3.4,> 100,3.07,> 100,7.91,2.61
CC(C)CCCC(C)C1CCC2C3CC([N+](=O)[O-])=C4CC(O)CCC4(C)C3CCC12C (stereo not drawn),,45.7,,50.1,,36.8,,,,48.6,,,,33.6,,41.5,,30.4,40.6,
O=C(CC1(O)C(=O)Nc2c(Cl)ccc(Cl)c21)c1ccc(Cl)cc1 (stereo not drawn),,32.8,,57.7,,,,,,46.5,,61.9,,,,64.9,,84.5,82.5,
O=c1c2cc(Br)ccc2nc(CNc2ccccc2)n1-c1ccccc1,,31.2,,36.8,,58.1,,,,34.1,,45.4,,19.9,,> 59.5,,31.8,93.4,
Cc1ccccc1NC(=O)CC(=O)NNCC(=O)Nc1nnc(-c2ccccc2)s1,,> 100,,> 100,,> 100,,,,> 100,,> 100,,> 100,,63.8,,> 100,> 100,
Nc1ccccc1C(=O)/C=C/c1ccccc1O,,> 100,,> 100,,93.4,,,,> 100,,> 100,,> 100,,68.9,,> 100,> 100,
CN(C)c1ccc(/C=C2\CCc3ccccc3C2=O)cc1Br,,> 100,,,,> 100,,,,> 100,,> 100,,> 100,,> 100,,> 100,,
CC(=O)NC(CCCNC(=O)OCc1ccccc1)C(=O)NCc1ccccc1 (stereo not drawn),,> 100,,> 100,,> 100,,,,> 100,,> 100,,> 100,,> 100,,> 100,> 100,
